Several values for one entry are separate records, joined by “and”; a condition that tells them apart may be missing. Equal values may be shown once. Entries after “also recorded” stand apart in the source; their conditions may differ. Ends that are not written are not given here.
What was measured:
[1] = biological target: T1, YEATS2 YEATS domain (aa 201–332), wild type (Homo sapiens, UniProt Q9ULM3); experiment: Isothermal titration calorimetry (ITC), wild-type YEATS domain; type: binding; settings: for binding in ITC, in words: WT YEATS2 YEATS domain
T1 construct: encompassing residues 201–332 of human YEATS2; 10×His-SUMO (N, cleaved yes); made in house; host or cells: Escherichia coli BL21 (DE3)
T1 sequence (Q9ULM3 201-332): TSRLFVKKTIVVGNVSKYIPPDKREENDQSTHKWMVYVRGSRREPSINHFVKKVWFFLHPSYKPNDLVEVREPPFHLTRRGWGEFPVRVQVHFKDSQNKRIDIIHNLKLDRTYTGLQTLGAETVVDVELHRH
Procedure: The YEATS2 domain encompassing residues 201–332 of human YEATS2 was cloned into a pSUMOH10 vector (an in house modified vector based on pET28b) containing an N-terminal 10×His-SUMO tag. The recombinant YEATS2_201–332 was overexpressed in Escherichia coli BL21 (DE3). After overnight induction by 0.4 mM isopropyl β-D-thiogalactoside at 16 °C in TB medium, cells were collected and suspended in buffer: 20 mM Tris, pH 7.5, 0.5 M sodium citrate, 5% glycerol, 1 mM phenylmethylsulfonyl fluoride, and 20 mM imidazole. After cell lysis and centrifugation, the recombinant protein was purified to homogeneity over HisTrap, and the 10xHis-SUMO tag was cleaved by ULP1 overnight at 4 °C then removed by reloaded onto the HisTrap column. The free YEATS2_201–332 protein was finally polished by size-exclusion chromatography on a Superdex G75 column (GE Healthcare) in elution buffer: 20 mM Tris, pH 7.5, 0.5 M sodium citrate, 5% glycerol, and 2 mM β-mercaptoethanol. All YEATS2_201–332 mutants were purified in essentially the same procedures as the wild-type protein. All mutant proteins were expressed and purified essentially the same as WT YEATS2 YEATS. […] Cells were pelleted via centrifugation, flash-frozen in liquid nitrogen, and lysed by sonication. Cell lysate was centrifuged, and the supernatant was incubated with glutathione Sepharose 4B beads (GE Healthcare). The GST tag was cleaved with Prescission protease.
All calorimetric experiments of the wild type or mutant YEATS domain proteins were conducted at 15 °C using a MicroCal iTC200 instrument (GE Healthcare). The YEATS2_201–332 samples were dialyzed in the following buffer: 20 mM Tris 7.5, 0.5 M sodium citrate, 5% glycerol, and 2 mM β-mercaptoethanol. Protein concentration was determined by absorbance spectroscopy at 280 nm. Peptides (>95% purity) were quantified by weighing on a large scale and then aliquoted and freeze-dried for individual use. Acquired calorimetric titration curves were analyzed using Origin 7.0 (OriginLab) using the “One Set of Binding Sites” fitting model.

[2] = biological target: AF9 YEATS domain; settings: ref Li et al., 2014; cited from earlier work
[3] = tested on: 15N-labeled YEATS domain of YEATS2 (aa 201–350); experiment: NMR titration, 1H,15N HSQC; type: binding, human; settings: 0.1 mM 15N-labeled YEATS domain, 1× PBS pH 6.8, 100 mM KCl, 298 K, increasing peptide (H3K27ac21–31 or H3K9ac1–12)
Procedure: The YEATS2 domain encompassing residues 201–332 of human YEATS2 was cloned into a pSUMOH10 vector (an in house modified vector based on pET28b) containing an N-terminal 10×His-SUMO tag. The recombinant YEATS2_201–332 was overexpressed in Escherichia coli BL21 (DE3). After overnight induction by 0.4 mM isopropyl β-D-thiogalactoside at 16 °C in TB medium, cells were collected and suspended in buffer: 20 mM Tris, pH 7.5, 0.5 M sodium citrate, 5% glycerol, 1 mM phenylmethylsulfonyl fluoride, and 20 mM imidazole. After cell lysis and centrifugation, the recombinant protein was purified to homogeneity over HisTrap, and the 10xHis-SUMO tag was cleaved by ULP1 overnight at 4 °C then removed by reloaded onto the HisTrap column. The free YEATS2_201–332 protein was finally polished by size-exclusion chromatography on a Superdex G75 column (GE Healthcare) in elution buffer: 20 mM Tris, pH 7.5, 0.5 M sodium citrate, 5% glycerol, and 2 mM β-mercaptoethanol. All YEATS2_201–332 mutants were purified in essentially the same procedures as the wild-type protein. All mutant proteins were expressed and purified essentially the same as WT YEATS2 YEATS. For NMR titrations, the YEATS domain (aa 201–350) of YEATS2 was expressed in BL21(DE3) RIL cells as a GST-fusion protein in minimal media supplemented with ^15NH4Cl (Sigma). […]

[4] = tested on: GST-YEATS2 YEATS domain; experiment: Histone peptide pulldown, western blot; type: binding, human; settings: 1 µg biotinylated peptide, 1–2 µg GST-fused protein, 4 °C overnight, streptavidin beads
Procedure: An aliquot of 1 µg of biotinylated histone peptides with different modifications were incubated with 1–2 µg of GST-fused proteins in binding buffer (50 mM Tris-HCl 7.5, 250 mM NaCl, 0.1% NP-40, 1 mM phenylmethyl sulphonyl fluoride (PMSF)) at 4 °C overnight. Streptavidin beads (Amersham) were added to the mixture, and the mixture was incubated for 1 h with rotation. The beads were then washed three times and analyzed using SDS-PAGE and western blotting. For GST pulldown, 2 µg protein were incubated with 10 µg of calf thymus total histones (Worthington) in binding buffer (50 mM Tris-HCl 7.5, 1 M NaCl, 1% NP-40, 0.5 mM EDTA, 1 mM PMSF plus protease inhibitors (Roche)) at 4 °C overnight, followed by an additional 1 h Glutathione Sepharose beads (Amersham) incubation. The beads were then washed five times and analyzed using SDS-PAGE and western blotting.

[5] = biological target: ENL YEATS domain; settings: ref Wan et al., 2017; cited from earlier work

Row | Substance | binding in ITC, in words ([1]; listed as H3K14ac) | Kd [2] | binding in ITC, in words [1] | Kd ([1]; main text and Fig. 3e, ITC at 15 °C, N.D. = not detected, read-out: dissociation constant (KD)) [µM] | chemical shift perturbations in 1H,15N HSQC spectra [3] | binding in histone peptide pulldown [4] | Kd [5] [µM]
1 | TARKSTGGK(ac)A [H36-15K14ac, histone H3 peptide, residues 6-15, acetylated at K14] | weak or no binding; also recorded: no detectable binding |  |  |  |  |  | 
2 | H3K27ac: K27-acetylated H3 peptide: ITC text = H3 15–39K27ac; NMR = H3K27ac21–31; pulldown = biotinylated peptide; cited AF9/ENL peptides unspecified (ATKAARK(Ac)SAPA) |  | ~7 µM and 7 µM | best binding substrate | 50 | global chemical shift perturbations | bound specifically | 30

From article PMC5651844, “YEATS2 links histone acetylation to tumorigenesis of non-small cell lung cancer” (Nature Communications, 2017)
